The values that follow come from patent publication US6225329A, “Modulators of protein tyrosine phosphatases (PTPases)” (Novo Nordisk A/S, priority 1998, dated 2001).

One test concerns B cell. The settings on record: compared to T cells; cited from earlier work.
Another test addresses T1, PTP1B (Homo sapiens, UniProt P18031).
T1 construct: a truncated form of PTP1B (corresponding to the first 321 amino acids); made in house; host or cells: E. coli
T1 sequence (P18031 1-321): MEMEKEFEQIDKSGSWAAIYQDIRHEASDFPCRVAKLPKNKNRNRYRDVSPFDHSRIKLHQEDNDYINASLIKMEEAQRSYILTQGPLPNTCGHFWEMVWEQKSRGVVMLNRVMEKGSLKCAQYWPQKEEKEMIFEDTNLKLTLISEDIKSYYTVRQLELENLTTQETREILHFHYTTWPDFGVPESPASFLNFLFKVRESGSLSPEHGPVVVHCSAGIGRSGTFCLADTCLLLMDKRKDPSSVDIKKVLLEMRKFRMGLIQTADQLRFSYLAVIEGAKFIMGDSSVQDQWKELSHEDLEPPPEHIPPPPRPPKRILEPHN
Put plainly: Inhibition of classical PTP1B (truncated, first 321 amino acids) with p-nitrophenyl phosphate substrate. In kind it is biochemical. Conditions: p-nitrophenyl phosphate 0.16 to 10 mM; 100 mM sodium acetate pH 5.5; 25° C., 60 minutes. How it is done: The assay conditions are as follows. […] The buffer used was 100 mM sodium acetate pH 5.5, 50 mM sodium chloride, 0.1% (w/v) bovine serum albumin and 5 mM dithiothreitol (total volume […]). The reaction was started by addition of the enzyme and carried out in microtiter plates at 25° C. for 60 minutes. The reactions are stopped by addition of NaOH. […] Inhibition is expressed as Ki values in μM.

Test [1] has as its system osteoblastic acid phosphatase. The settings on record: mitogenic concentrations of fluoride; cited from earlier work.
The conditions of test [2]: osteoporotics; cited from earlier work.
The next test deals with osteoblast. Conditions: cited from earlier work.
The subject of test [3] is osteoblast-like cell line UMR106. Conditions: cited from earlier work; for stimulation of cell growth relative to vanadate: compared with vanadate.
The next test relates to adipocytes. The settings on record: cited from earlier work.
A further test has as its system skeletal muscle. Conditions: cited from earlier work.
In a further test the test system is platelets. The settings on record: cited from earlier work.
Another test has as its system SSTR1. The settings on record: SSTR1 stably expressed in CHO-K1 cells; pertussis toxin-sensitive; cited from earlier work.

For `Cc1occc(=O)c1[O-].Cc1occc(=O)c1[O-].[O]=[V+2]` [BMLOV], in the test with B cell, the “B cell selective apoptosis” value is given as “apparent B cell selective apoptosis”.
In the case of `O=C(O)C(=O)Nc1cc2ccccc2cc1C(=O)O` [Example 2, 3-(Oxalyl-amino)naphthalene-2-carboxylic acid], at PTP1B, the Ki (usually the equilibrium dissociation constant of an inhibitor or competing ligand from its target) was found to be 9.9 µM.
As to `F` [fluoride], the “sensitivity of osteoblastic acid phosphatase” value in test [1] was “highly sensitive”. For the same compound, the spinal bone density entry in test [2] was “increase spinal bone density in osteoporotics”.
As to `[O]=[V]([O-])([O-])[O-]` [orthovanadate], the “osteoblast proliferation and matrix formation” value in the test on osteoblast was “appears to enhance osteoblast proliferation and matrix formation”.
Regarding `[O]=[V]([O-])([O-])[O-]` [vanadate], the “cell differentiation as measured by cell alkaline phosphatase activity” value in test [3] (cell alkaline phosphatase activity) is reported as “able to regulate the cell differentiation”. For the same compound, in [3], the “growth of UMR106 cells” value is on record as “increased the growth”.
Regarding `O=S(=O)([O-])[O-].[O]=[V+2]` [vanadyl], in test [3], the “growth of UMR106 cells” value is “increased the growth” and the “stimulation of cell growth relative to vanadate” value is “stronger stimulators of cell growth than vanadate”.
For the compound pervanadate, in the test with adipocytes, the “insulin response when added to whole cells” value was “almost full insulin response”. In addition, in test [3], the “growth of UMR106 cells” value is listed as “increased the growth” and the “stimulation of cell growth relative to vanadate” value was “stronger stimulators of cell growth than vanadate”. Besides, the “insulin response when added to whole cells” value with skeletal muscle is listed as “almost full insulin response”. In the test with platelets, the “tyrosine phosphorylation, secretion and aggregation of platelets” value was “significant increase in tyrosine phosphorylation, secretion and aggregation”.
For the compound somatostatin, the “stimulation of PTPase activity” value in the test with SSTR1 is “can stimulate PTPase activity”.
